{"source": "patent US9079974B2", "about": "“GH-RH analogs with potent agonistic effects” (The University of Miami, priority 2011, dated 2015)", "key": {"[1]": {"test_system": "superfused rat pituitary cells", "assay": "GH release in superfused rat pituitary cell system", "format": "cell-based", "conditions": "1 nM", "method": "Growth hormone releasing is assayed by using a superfused rat pituitary cell system as described in S. Vigh and A. V. Schally, Peptides 5, Suppl: 241-347, 1984, which is incorporated by reference herein. The new synthetic peptide analogs of hGH-RH P20356 and JI-38 as control are administered for 3 minutes (1 mL perfusate) at 1 nM concentration as shown below. Fractions of 1 ml are collected and the GH content in each is determined by ELISA. […] Effect of hGH-RH analogs (1 nM) on the GH release in superfused rat pituitary cell system\nPituitary cells from 2 male rates were used for each channel of the superfusion system. The cells were exposed to 3-min pulses of the new GHRH agonists or to JI-38 as standard every 30 min. Outflowing samples of each channel (1 ml) were collected every 3 min, and GH levels were determined by ELISA."}, "GH release": {"test_system": "GH release", "assay": "In vivo GH release after subcutaneous administration", "conditions": "rat, s.c.", "method": "Blood samples are taken from the jugular vein; 5, 15 and 30 minutes or only 15 and 30 minutes after the injection. The blood samples are centrifuged, plasma is removed and the GH level is measured by ELISA. The results are summarized in terms of potency in Table 9."}}, "note": "“Also recorded” adds a separate entry of the source. Square brackets hold non-standard residues; d marks the D form. Peptide text beside a SMILES is read from it. * marks the point of attachment. NMeY = CN[C@@H](Cc1ccc(O)cc1)C(=O)O; Agmatine = N=C(N)NCCCCN*; Nle = CCCC[C@H](N)C(=O)O; Orn = NCCC[C@H](N)C(=O)O; Abu = CC[C@H](N)C(=O)O"}
{"molecule": "CCCC[C@H](NC(=O)[C@@H](NC(=O)[C@H](CC(=O)O)NC(=O)[C@H](CCC(N)=O)NC(=O)[C@H](CC(C)C)NC(=O)[C@H](CC(C)C)NC(=O)[C@H](CCCN)NC(=O)[C@H](CCCNC(=N)N)NC(=O)[C@H](C)NC(=O)[C@H](CO)NC(=O)[C@H](CC(C)C)NC(=O)[C@H](CCC(N)=O)NC(=O)[C@H](CC)NC(=O)[C@H](CC(C)C)NC(=O)[C@@H](NC(=O)[C@H](CCCN)NC(=O)[C@H](CCCNC(=N)N)NC(=O)[C@H](Cc1ccc(O)cc1)NC(=O)[C@H](CO)NC(=O)[C@H](CCC(N)=O)NC(=O)[C@@H](NC(=O)[C@H](Cc1ccccc1)NC(=O)[C@@H](NC(=O)[C@H](C)NC(=O)[C@H](CC(=O)O)NC(=O)[C@H](C)NC(=O)[C@H](Cc1ccc(O)cc1)NC)[C@@H](C)CC)[C@@H](C)O)C(C)C)[C@@H](C)CC)C(=O)N[C@@H](CC(=O)O)C(=O)NCCCCNC(=N)N", "note": "[Peptide P-20356, [N—Me-Tyr^1, Gln^8, Orn^12, Abu^15, Orn^21, Nle^27, Asp^28, Agm^29]hGH-RH(1-29)] (H-[NMeY]ADAIFTQSYR[Orn]VL[Abu]QLSAR[Orn]LLQDI[Nle]D-Agmatine)", "values": [{"measurement": "times more potent in vitro than JI-38 (GH release)", "setting": "[1]", "value": "about 3 times"}, {"measurement": "GH response after subcutaneous administration (in words)", "setting": "GH release", "value": "unusually high responses; also recorded: especially greater growth hormone levels than hGH-RH or JI-38"}]}
